Measured values as given in a melting point compilation (Tetko et al.; mined from patent text by program, amines drawn as free bases though some values may be those of a salt).

Compound | melting point [°C]
COc1ccc2c(=O)c(-c3ccc(OCC(O)CN4CCOCC4)cc3)coc2c1 (configuration not stated) | 117 to 118
CCOC(=O)c1csc2cc(OC)ccc12 | 68 to 69
CCc1c(C(=O)O)sc2[nH]c(=O)c(=O)[nH]c12 | 230 to 232
O=c1[nH]c2ccc(C(F)(F)F)cc2c2c1c(=O)oc1ccc(Cl)cc12 | > 250
O=C(O)CSc1nc(-n2cc(C3c4ccccc4C=Cc4ccccc43)c(=S)[nH]c2=O)ncc1-c1ccc(CC(=O)O)cc1 | 280
COc1ccc(CNc2nc(CCCC(=O)O)nc3[nH]c4ccccc4c23)cc1Cl | 143
C=CCOc1ccc(-c2ccc(Cl)nn2)c(OCC(O)CNC(C)(C)C)c1 (configuration not stated) | 93 to 94
COc1ccc(C(=O)Nc2c(Cl)cncc2Cl)c2c3cc(Cl)ccc3n(Cc3ccc(F)cc3)c12 | 249 to 250
COc1ccc(C(=O)NCCc2ccc(-c3ccc(OC(C)(C)C(=O)O)cc3)cc2)cc1 | 180 to 183
CCCOc1cccc(C=C(C=O)C(C=O)=Cc2cccc(OCCC)c2)c1 | 93 to 94
CCCCCCCCCCCCCCCCCCOc1ccc(C(=O)C(=O)O)cc1 | 78 to 80
Cc1nc(Br)c(S(C)(=O)=O)c(Br)n1 | 161 to 162
CS(=O)(=O)c1ccc(-c2cc(C(=O)CCCO)nn2-c2ccccc2)cc1 | 143 to 145
O=C1CSC(=S)N1c1cccc(C(F)(F)F)c1 | 177 to 178
COc1cccc(CNc2nccc(-c3cc(N4CCN(CCCN(C)C5CCCCC5)CC4)c4cc(OC)ccc4c3)n2)c1 | 155 to 161
Oc1ccc2nc(-c3cccc(Cl)c3)oc2c1 | 246 to 248
Cc1csc(C(C)(O)c2nc(C)cs2)n1 | 82 to 84
CCc1c(-c2ccc3cn[nH]c3c2)cc(Nc2ccc(N3CCN(CC)CC3)cn2)c2nccn12 | 217
Cn1ncc(C(=O)N2CCC2)c1C(=O)Nc1ccn2nc(N3CCCC3)nc2c1 | > 250
C=Cc1ccccc1N1CCCCC1 | 147 to 150
O=[N+]([O-])c1ccc(Sc2nccn2Cc2ccccc2)cc1 | 122 to 123
CCCc1c(-c2ccc(OC(F)F)c(OC3CC3)c2)[nH]c2cnn(COCC[Si](C)(C)C)c(=O)c12 | 208 to 210
COc1ccc2nc(-c3ccc(OC)c(F)c3)c(Cl)c(Br)c2c1 | 197 to 199
COCOC1=C(C(N)=O)CC(C#N)(c2cccc(OCC3CC3)c2)CC1 (configuration not stated) | 120 to 122
N#CC(Cc1ccccc1)=NNc1ccc([N+](=O)[O-])cc1 | 158 to 160
Cc1cccc(-n2c(CF)nc3ccc(N)cc3c2=O)c1C | 189 to 192

Compound | melting point [°C]
CN1CCC(=O)N(c2ccc(Cl)cc2Cl)C1=O | 122 to 125
Cn1c(=O)c2c(ncn2CC(N)=NO)n(C)c1=O | 224
Cc1ccc(S(=O)(=O)Nc2nc(-c3ccc(OCc4ccccc4)cc3)cs2)cc1 | 166 to 167
COc1ccc(NS(=O)(=O)c2ccc(N3CCC(NC[C@H](O)COc4ccc(OCc5ccccc5)cc4)CC3)cc2)cc1OC | 113 to 121
COc1ccc(COC(=O)C(=CNc2ncccc2OC(=S)N(C)C)C(=O)OCc2ccc(OC)cc2)cc1 | 117 to 118
CNc1nc(-c2cccc(NC(=S)c3ccc(C)cc3)c2)c2cc(OC)c(OC)cc2n1 | 209 to 211
c1ccc(C2CNc3ccccc3O2)cc1 (configuration not stated) | 113 to 116
CCOC(=O)CCC(O)c1ccc(-c2ccccc2F)cc1 (configuration not stated) | 61 to 62
C[C@@H]1CNCCN1C(=O)OC(C)(C)C | 33 to 36
Nc1nc(C(=Cc2c(Cl)ccc(Cl)c2Cl)C(=O)O)cs1 | > 210
CCN=C(SC)N(C)Cc1ccc(Cl)nc1 | 132 to 133
CCOc1cc2cc(C(=O)OC)c(C(=O)OC)c(-c3ccnc(Br)c3)c2cc1OC | 203 to 204
N#CCCNC(=O)c1cccc(-c2ncc3ccn(Cc4ccc(Cl)cc4Cl)c3n2)c1 | 198 to 199
Sc1nnc(-c2cccnc2)o1 | 237
CCCOc1ccccc1-c1nc2c(C(N)=O)cccc2c(=O)[nH]1 | 226 to 227
C/C(Cl)=C/CCC(=O)C=P(c1ccccc1)(c1ccccc1)c1ccccc1 | 109 to 113
CCOC(=O)c1ncn2c1CN=C(c1ccccc1F)c1cc(I)ccc1-2 | 200 to 202
CC1CCC(Nc2ccccc2)c2nccc(=O)n21 (configuration not stated) | 160 to 162
Cc1cc2c(c(C)c1C)C(=O)C(C)(C)O2 | 77 to 78
CC1CCC2(CC1)OCCN2C(=O)C(Cl)Cl (configuration not stated) | 119 to 120
O=C(O)COc1ccc(CCNS(=O)(=O)c2ccccc2)cc1 | 157 to 158
CCOC(=O)Nc1cc(F)cc(CCCCC(=O)O)c1 | 136 to 137
Cc1ccc2c(c1)CC(=S)N2C | 143 to 145
CCC(C)(C)c1ccc(O)c(C(=O)Nc2ccc([N+](=O)[O-])cc2C)c1 | 150 to 151
O=C1CC(O)CC(/C=C/c2ccccc2-c2ccccc2)O1 (configuration not stated) | 89 to 91
CCNC(=O)c1ccc(CCN2CC=C(c3c[nH]c(-c4ccc(F)cc4)c3-c3ccncc3)CC2)cc1 | 228 to 230

Compound | melting point [°C]
CC(=O)N(N=Nc1cc(C(F)(F)F)ccc1C#N)c1cc(C(F)(F)F)ccc1C#N | 111 to 112
O=C1NCCCC1Cc1ccccc1 (configuration not stated) | 120 to 123
N#Cc1ccc(C(N2CCN(c3ncccn3)CC2)N2CCCC2=O)cc1 (configuration not stated) | 185 to 188
CC1CCN(C(C#N)C2(c3ccc(Cl)c(Cl)c3)CCC2)CC1 (configuration not stated) | 76 to 78
C1CN2CCN3CCN(CCN1)P23 | 109 to 111
CCCCOC(=O)C(N)c1ccc(OCC(O)CNC(C)C)nc1 (configuration not stated) | 85 to 87
CC(C)(C(N)=O)c1ccc2nc(-c3ccncc3)[nH]c2c1 | 274 to 276
Nc1nc(Cl)cc(CF)n1 | 159
CN(C)c1ccnc(CO)n1 | 83 to 84
CCOC(=O)c1c(O)c2cccnc2n(C)c1=O | 158 to 160
Cc1nc2cc(-c3ccnc(-c4cn(C)c(=O)n4-c4ccc(C(C)(C)C#N)cc4)c3)cnc2[nH]1 | 288
CCS(=O)(=O)Nc1cc(N=c2sc(=S)n3n2CCCC3)c(F)cc1Cl | 146 to 148
O=C1CCCn2c1cc1ccccc12 | 138 to 140
Cn1cc2c(n1)-c1c(Cc3ccccc3)sc(C(N)=O)c1CC2 | 212 to 213
Cn1c(=O)c2c(ncn2CCN2CCC(c3c[nH]c4ccc(O)cc34)CC2)n(C)c1=O | 232
CSc1ccc2ccc(N3C(=O)c4ccccc4C3O)nc2n1 (configuration not stated) | 210
CC1(C)CCC(C)(C)c2cc(NC(=O)c3ccc(C(=O)O)cn3)ccc21 | 206 to 207
CC(C)P1(=O)c2ccccc2CN1c1ccccc1 (configuration not stated) | 145 to 147
COc1ccc(-c2csc(Nc3cccnc3)n2)cc1OC | 251 to 254
COc1cccc(OC)c1C(=O)P(=S)(CC(C)C)C(=O)c1c(OC)cccc1OC | 145 to 147
O=C(O)C1=Cc2cc(-c3ccc(C(F)(F)F)cc3)ccc2S(=O)(=O)CC1 | > 300
O=C1Nc2cccc(-c3cnc4ccccc4c3)c2C12COc1cc3c(cc12)OCCO3 (configuration not stated) | 221 to 224
OCc1cnoc1-c1ccc(C(F)(F)F)cc1 | 106 to 107
COc1cc(OC)nc(-n2c(N)nc3cc(C)ccc32)n1 | > 300
Cc1ccc(N2CN(c3ccccc3)C3=NN=CC3=C2N)cc1 | 248 to 250
COc1ccc(-c2nc3cccnc3[nH]2)cc1NS(=O)(=O)c1cccs1 | 252 to 254

Compound | melting point [°C]
COc1cc(C2=CCN(S(=O)(=O)CC(=O)NO)CC2)ccc1-c1ccccc1 | 175 to 177
c1ccc(-c2ccc(C34CCCN(CC3)C4)nn2)cc1 (configuration not stated) | 133 to 134
N=c1[nH]c2ccc(Cl)cc2c2nc(C3CCCO3)nn12 (configuration not stated) | 203 to 206
O=c1c(Cl)c(OCc2ccc(Cl)cc2Cl)cnn1-c1ccc(Cl)cc1 | 168 to 169
CCOC(=O)c1c(C(Cl)Cl)nc2c(C(F)(F)F)cccc2c1O | 88
CON(C(=O)c1cn(C)nc1C(F)F)C(C)C1CC1c1ccc(Cl)cc1Cl (configuration not stated) | 133 to 135
O=C1OCC(CC(F)(F)F)N1c1nc(-c2ccc(Br)cc2)cs1 (configuration not stated) | 163 to 165
Cc1cccc(CC(=O)O)c1OCCCc1cn(-c2ccc(C(F)(F)F)cn2)nc1C1CCCCC1 | 184 to 185
CSCc1noc(C(C)c2ccc(-c3ccccc3)c(F)c2)n1 (configuration not stated) | 55.5 to 56
CC1CCCN(c2nc(-n3cncn3)nc(Cl)c2-c2c(F)cc(F)cc2F)O1 (configuration not stated) | 141 to 143
CC(CNc1ccc(Cl)cc1[N+](=O)[O-])SC#N (configuration not stated) | 69 to 70
COc1cc2c(cc1C(=O)c1cc(C(C)(C)C)c(O)c(C(C)(C)C)c1)CCC2 | 154 to 156
Cc1cc(=O)c2cc(Oc3ccccc3)c(NS(C)(=O)=O)cc2o1 | 186 to 187
CCC(CC)(CO)Nc1nc(-c2ccc(C#N)cc2)cs1 | 118 to 120
Cc1ccc(S(=O)(=O)NC(=O)OCCc2ccc(-n3c(CCC(=O)c4cccnc4)nc4cc(C(F)(F)F)c(Cl)cc43)cc2)cc1 | 89 to 95
COc1ccc(C(=O)Nc2ccc(Cl)c(Cl)c2)cc1NCc1cccnc1 | 145 to 147
Cc1ccc(C)c(COc2ccc(N)nn2)c1 | 109 to 111
Nc1ccncc1Nc1ccc2cn[nH]c2c1 | 214 to 216
CC(C(=O)O)n1cc(-c2ccc(Oc3ccccc3)cc2)c2c(N)ncnc21 (configuration not stated) | 240 to 241
CC(=O)OCc1c(-c2cc(Nc3cc4n(n3)CCN(C)C4)c(=O)n(C)n2)cccc1-n1ncc2cc(C(C)(C)C)cc(F)c2c1=O | 188 to 193
CCCCCn1c2ccc(CN3CCCCC3)cc2c2ccc(OC)cc21 | 64 to 65
O=C1N(c2ccccc2)CC(CCl)C1(Cl)Cl (configuration not stated) | 133 to 134
CCOC(c1cccc2cccnc12)n1c(NC2CCN(C(CN)C(C)C)CC2)nc2ccccc21 (configuration not stated) | 202
COc1ccc2c3c(nn(CCO)c13)-c1ccccc1N2 | 275
